Reference: ChEMBL document CHEMBL3739270 (Medchemcomm, 2015)

Assays:
Type in all cases: cell-based
[1] = system: CHO; experiment: Selectivity ratio, ratio of Ki for human melatonin receptor MT2 to Ki for human melatonin receptor MT1 expressed in CHO cells
[2] = target: Melatonin receptor type 1A (Homo sapiens, UniProt P48039); experiment: Displacement of 2-[125I]-iodomelatonin from human melatonin receptor MT1 expressed in CHO cells after 1 hr by gamma counting analysis
[3] = target: T1, Melatonin receptor type 1B (Homo sapiens, UniProt P49286); experiment: Displacement of 2-[125I]-iodomelatonin from human melatonin receptor MT2 expressed in CHO cells after 1 hr by gamma counting analysis
T1 sequence (P49286 whole entry): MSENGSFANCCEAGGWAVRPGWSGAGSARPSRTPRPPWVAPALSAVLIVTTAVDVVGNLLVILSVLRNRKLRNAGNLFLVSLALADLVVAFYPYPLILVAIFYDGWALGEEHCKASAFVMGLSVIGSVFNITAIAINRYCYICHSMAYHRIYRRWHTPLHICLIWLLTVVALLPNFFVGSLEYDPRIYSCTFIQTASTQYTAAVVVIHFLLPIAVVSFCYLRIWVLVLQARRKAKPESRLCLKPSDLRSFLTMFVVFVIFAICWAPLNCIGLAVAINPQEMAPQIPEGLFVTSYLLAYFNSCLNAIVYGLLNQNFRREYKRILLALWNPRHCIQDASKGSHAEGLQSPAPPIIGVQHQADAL

[4] = system: CHO-K1; experiment: Selectivity ratio, ratio of Ki for human melatonin receptor MT2 to Ki for human melatonin receptor MT1 expressed in CHO-K1 cells
[5] = system: HEK293; experiment: Selectivity ratio, ratio of Ki for human melatonin receptor MT2 to Ki for human melatonin receptor MT1 expressed in HEK293 cells

Melatonin receptor type 1A, sequence (P48039 whole entry): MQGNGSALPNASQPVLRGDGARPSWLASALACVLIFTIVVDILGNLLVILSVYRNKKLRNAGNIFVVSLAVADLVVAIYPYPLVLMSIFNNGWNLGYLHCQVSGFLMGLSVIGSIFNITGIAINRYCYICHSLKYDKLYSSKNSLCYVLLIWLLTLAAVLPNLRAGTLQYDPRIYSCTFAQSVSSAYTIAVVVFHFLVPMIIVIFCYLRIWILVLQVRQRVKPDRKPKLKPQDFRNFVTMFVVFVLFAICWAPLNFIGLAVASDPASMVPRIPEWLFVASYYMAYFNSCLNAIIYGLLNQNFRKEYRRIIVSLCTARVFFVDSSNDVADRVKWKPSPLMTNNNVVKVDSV

Row | Ki ([2]; read-out: Ki) [nM] | Ki ([3]; read-out: Ki) [nM] | Structure (SMILES) | other results
1 | 0.054 | 0.85 | COc1ccc2cccc(CCNC(=O)C(F)F)c2c1 | Ratio Ki [1]: 16
2 | 9 | 9 | CC(=O)NCCc1cccc2ccc(OCCCc3ccccc3)cc12 | Ki ([2]; read-out: pKi (converted)): 25.1 nM; Ki ([3]; read-out: pKi (converted)): 21.4 nM
3 | 1.2 | 8.1 | O=C(NCCc1cccc2ccc(OCCCOc3ccc4cccc(CCNC(=O)C(F)F)c4c3)cc12)C(F)F | Ratio Ki [1]: 7
4 |  |  | CCCCCCOc1ccc2c(c1)C(CCNC(C)=O)CCO2 (stereo not drawn) | Ratio Ki [4]: 30
5 | 35 | 44 | CC(=O)NCCc1cccc2ccc(OCCCOc3ccccc3)cc12 | 
6 |  |  | CC(=O)NCCc1cccc2ccc(OCCCCOc3ccc4cccc(CCNC(C)=O)c4c3)cc12 | Ratio Ki [5]: 120
7 |  |  | O=C(NCCCc1cccc2nc(CCCCc3ccccc3)oc12)C1CC1 | Ratio Ki [4]: 30
8 | 5 | 2 | COc1ccc2cccc(CCNC(=O)C(Cl)Cl)c2c1 | 
9 | 6.2 | 7.8 | O=C(NCCc1c[nH]c2ccc(OCCCOc3ccccc3)cc12)C(F)F | Ratio Ki [1]: 10
10 | 12 | 15 | O=C(NCCc1cccc2ccc(OCCCCOc3ccc4cccc(CCNC(=O)C(F)F)c4c3)cc12)C(F)F | 
11 | 112 |  | CC(=O)NCCc1cccc2ccc(OCCCOc3ccc4cccc(CCNC(C)=O)c4c3)cc12 | Ki ([3]; read-out: pKi (converted)): 355 nM
12 | 5 | 2 | COc1ccc2cccc(CCNC(=O)C(F)(F)F)c2c1 | 
13 | 9 | 9 | CC(=O)NCCc1cccc2ccc(OCCCCc3ccccc3)cc12 | 
